16 compounds from patent US9073941B2, “Compounds and methods for treating tuberculosis infection” (Academia Sinica, priority 2010, dated 2015) can be followed below.

The target of test [1] is lipoamide dehydrogenase (Lpd) (Mycobacterium tuberculosis (strain ATCC 25618 / H37Rv), UniProt P9WHH9). As to the kind of experiment: Lipoamide Dehydrogenase (Lpd) Inhibition Assay. Format: biochemical.
Another test addresses Mtb PDH (Lpd+DlaT+AceE) (Mycobacterium tuberculosis (strain ATCC 25618 / H37Rv), UniProt P9WHH9). The test is described as follows: PDH Inhibition Activity. Format: biochemical.
For test [2], the system named is Mycobacterium tuberculosis strains H37Rv. As to the kind of experiment: In Vitro Antitubercular H37Rv MIC Assay (resazurin). Format: cell-based. Particulars: 168 h. For orientation: The colour change of resazurin is a common sign of viable cells or microbes.
[3] abbreviates: concentration required for 50% inhibition of LPD activity, DTNB detection, OD405 nm.
Where [4] appears, read: concentration required for 50% inhibition of PDH activity, fluorescence ex 360 nm / em 460 nm, read-out: PDH IC50.
The mark [5] stands for this setting: growth of Mycobacterium tuberculosis H37Rv, 7H9 medium, 7 days, tested 8-0.25 μg/mL.
Setting [6] is: Mycobacterium tuberculosis, H37RV.

Each structure is given as a SMILES string. Converted amounts (≈) assume the structure as drawn. Like-named read-outs stand apart in the source and are kept apart here.

One may read the IC50 as the concentration at which inhibition is half-maximal. As usually defined, the MIC is the lowest concentration that inhibits growth of the organism. High values mean weaker potency, low ones greater potency. Take `Nc1ccc2c(c1)C(=O)C(=O)c1ccccc1-2` [Compound 902]: the half-maximal inhibitory concentration (IC50) is 670 ± 70 nM in test [1] (setting [3]) and 788 nM at Mtb PDH (Lpd+DlaT+AceE) (setting [4]). The compound further gave an MIC in test [2] (setting [5]) above 8 µg/mL.

Regarding `CC1(C)C(=O)N=C2c3ccccc3C(=O)C(=O)C21` (stereo not drawn) [Compound 903], the IC50 in test [1] (setting [3]) stood at 860 ± 80 nM; on Mtb PDH (Lpd+DlaT+AceE) (setting [4]), 1170 nM. The same compound showed an MIC in test [2] (setting [5]) above 8 µg/mL.

Regarding `CCn1nc(/C=C/c2ccccc2)nc2c(=O)n(C)c(=O)nc1-2` [Compound 609], the IC50 (in test [1] (setting [3]); on Mtb PDH (Lpd+DlaT+AceE) (setting [4])) was below 40 nM each time. For the same compound, the MIC in test [2] (setting [6]) is above 8 µg/mL.

As for `CCOC(=O)/C=C\CBr` [(XVI)], the IC50 in test [1] (setting [3]) is 2920 ± 880 nM; on Mtb PDH (Lpd+DlaT+AceE) (setting [4]) it was 1650 nM. The MIC in test [2] (setting [5]) was at most 0.25 µg/mL.

For `CCn1nc(-c2ccccc2)nc2c(=O)n(C)c(=O)nc1-2` [Compound 602], the IC50 in test [1] was 230 ± 20 nM; against Mtb PDH (Lpd+DlaT+AceE), below 40 nM. This compound had an MIC in test [2] (setting [6]) above 8 µg/mL.

For the compound `O=C1C(=O)c2cc([N+](=O)[O-])ccc2-c2ccccc21` [Compound 904], the IC50 in test [1] (setting [3]) is 640 ± 50 nM; at Mtb PDH (Lpd+DlaT+AceE) (setting [4]), 691 nM. Besides, the MIC in test [2] (setting [5]) is above 8 µg/mL.

`Cc1nc2c(=O)n(C)c(=O)nc-2n(C)n1` [Compound 611]: the figures for the IC50 (in test [1] (setting [3]); at Mtb PDH (Lpd+DlaT+AceE) (setting [4])) were 80 ± 10 nM and below 40 nM, respectively. In test [2] (setting [6]), the MIC is 4 µg/mL (≈ 19.3 µM).

`Cn1nc(-c2ccc(Cl)c(Cl)c2)nc2c(=O)n(C)c(=O)nc1-2` [Compound 604]: the 50% inhibitory concentration (IC50) was 140 ± 10 nM in test [1] and below 40 nM on Mtb PDH (Lpd+DlaT+AceE). The compound also displayed an MIC in test [2] (setting [5]) above 8 µg/mL.

As to `CCCCn1c(NC(=O)c2ccc(Br)o2)c(C#N)c2nc3ccccc3nc21` [Compound 1001], the IC50 in test [1] (setting [3]) came to 1080 ± 240 nM; at Mtb PDH (Lpd+DlaT+AceE) (setting [4]), 954 nM. For the same compound, the MIC in test [2] (setting [5]) was above 8 µg/mL.

On to `Cc1ccc(CNC(=O)C2CCN(S(=O)(=O)c3cn(C(C)C)cn3)CC2)cc1` [Compound 501], for which the values for the IC50 (in test [1] (setting [3]); on Mtb PDH (Lpd+DlaT+AceE) (setting [4])) were 3050 ± 1050 nM and 3130 nM, respectively. The MIC in test [2] (setting [5]) was above 8 µg/mL.

As to `C=CCn1c(NS(=O)(=O)c2ccccc2)c(C#N)c2nc3ccccc3nc21` [Compound 1002], the IC50 in test [1] (setting [3]) came to 980 ± 150 nM; at Mtb PDH (Lpd+DlaT+AceE) (setting [4]) it was 3320 nM. For the same compound, in test [2] (setting [5]), the MIC is above 8 µg/mL.

With `CCn1nc(-c2ccc(OC)cc2)nc2c(=O)n(C)c(=O)nc1-2` [Compound 607], the values for the IC50 (in test [1] (setting [3]); at Mtb PDH (Lpd+DlaT+AceE) (setting [4])) were 60 ± 10 nM and below 40 nM, respectively. The same compound registered an MIC in test [2] (setting [5]) of 8 µg/mL (≈ 25.5 µM).

On to `COc1ccc(-c2nc3c(=O)n(C)c(=O)nc-3n(C)n2)cc1` [Compound 605], for which the IC50 in test [1] (setting [3]) is 70 ± 10 nM; at Mtb PDH (Lpd+DlaT+AceE) (setting [4]), below 40 nM. Moreover, the MIC in test [2] (setting [5]) was 8 µg/mL (≈ 26.7 µM).

For `COc1ccc(-c2nc3c(=O)n(C)c(=O)nc-3n(C)n2)cc1OC` [Compound 606], the figures for the IC50 (in test [1] (setting [3]); at Mtb PDH (Lpd+DlaT+AceE) (setting [4])) were 960 ± 70 nM and 1440 nM, respectively. The compound further had an MIC in test [2] (setting [5]) above 8 µg/mL.

Take `O=C1C(=O)c2nn(-c3ccccc3)nc2-c2ccccc21` [Compound 905]: the IC50 (in test [1]; on Mtb PDH (Lpd+DlaT+AceE)) was below 40 nM in each case. For the same compound, the MIC in test [2] (setting [5]) came to 8 µg/mL (≈ 29.1 µM).

For the compound `Cn1nc(-c2ccc(Cl)cc2)nc2c(=O)n(C)c(=O)nc1-2` [Compound 603], the IC50 was 100 ± 10 nM in test [1] and below 40 nM against Mtb PDH (Lpd+DlaT+AceE). Besides, in test [2] (setting [5]), the MIC was above 8 µg/mL.
